Laboratory results reported in PubChem BioAssay (NCI).
“And” between values parts separate entries of the source, which are not always exact repeats. Equal entries are not always repeated.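 These data come from cells grown in 96-well plates and exposed to compound for 48 hours at five concentrations. Here, GI50 denotes the concentration required for 50% inhibition of growth. Definition used: TGI = concentration required for complete inhibition of growth.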

What was measured:
Test in all cases: NCI tumour cell line growth inhibition, 48 h
T-47D breast = test system: T-47D breast
OVCAR-4 ovarian = test system: OVCAR-4 ovarian
IGROV1 ovarian = test system: IGROV1 ovarian
NCI-H522 lung = test system: NCI-H522 lung
SK-MEL-5 melanoma = test system: SK-MEL-5 melanoma
NCI-H23 lung = test system: NCI-H23 lung
BT-549 breast = test system: BT-549 breast
MCF7 breast = test system: MCF7 breast
KM20L2 colon = test system: KM20L2 colon
LXFL 529 NSCLC = test system: LXFL 529 NSCLC

SMILES	GI50 (T-47D breast)	TGI (T-47D breast)	GI50 (OVCAR-4 ovarian)	TGI (OVCAR-4 ovarian)	GI50 (IGROV1 ovarian)	TGI (IGROV1 ovarian)	GI50 (NCI-H522 lung)	TGI (NCI-H522 lung)	GI50 (SK-MEL-5 melanoma)	TGI (SK-MEL-5 melanoma)	GI50 (NCI-H23 lung)	TGI (NCI-H23 lung)	GI50 (BT-549 breast)	TGI (BT-549 breast)	GI50 (MCF7 breast)	TGI (MCF7 breast)	TGI (KM20L2 colon)	TGI (LXFL 529 NSCLC)
Oc1ccc(NC(=S)Nc2ccccc2)cc1	> 100 µM	> 100 µM	> 100 µM	> 100 µM	> 100 µM	> 100 µM	> 100 µM	> 100 µM	> 100 µM	> 100 µM	> 100 µM	> 100 µM	> 100 µM	> 100 µM	> 100 µM	> 100 µM		
O=c1cc(-c2ccc(Cl)cc2)[nH]c2ccccc12	63.2 µM	> 100 µM	> 100 µM	> 100 µM	61.5 µM	> 100 µM	59.6 µM	> 100 µM	26.7 µM	> 100 µM	63 µM	> 100 µM	29.4 µM	> 100 µM	41.3 µM	> 100 µM		
C[C@@H](Nc1nc(N[C@H](C)C(F)(F)F)nc(-c2cccc(Cl)n2)n1)C(F)(F)F	41.8 µM	> 100 µM	23.3 µM	96.9 µM	52.5 µM	> 100 µM	30 µM	> 100 µM	51.2 µM	> 100 µM	54 µM	> 100 µM	37.9 µM	> 100 µM	50.6 µM	> 100 µM		
OCC1NC(COC2OC(CO)C(O)C(O)C2O)C(O)C(O)C1O (centres undefined)		> 100 µM		> 100 µM		> 100 µM		> 100 µM		> 100 µM		> 100 µM		> 100 µM		> 100 µM		
C/C=C1/CN2CCC34C(=C(C(=O)OC)C1CC23)Nc1ccc(O)cc14 (centres undefined)		> 100 µM		> 100 µM		> 100 µM		> 100 µM		> 100 µM		> 100 µM		> 100 µM		> 100 µM		
NC(N)=NN=c1c(=O)c2ccccc2c1=O	23.5 µM	50.4 µM	12.6 µM	25.2 µM	17.2 µM	35.3 µM	17.7 µM	32.8 µM	2.93 µM	11.7 µM	1.79 µM	3.94 µM	15.7 µM	29.2 µM	8.89 µM	27.9 µM		
CCCCCC/C=C/C#CCCCCCCCC(=O)O		> 100 µM		> 100 µM		> 100 µM		> 100 µM		> 100 µM		> 100 µM		> 100 µM		> 100 µM		
COc1cc(/C=C/C(=O)c2cccc3ccccc23)cc(OC)c1OC				19.1 µM		43.4 µM				23.8 µM		18.4 µM					13.6 µM	10.3 µM
CN1CCN(CCCOc2cccc3nc(Nc4cc(Cl)cc(Cl)c4)ccc23)CC1	1.79 µM	3.76 µM	2.55 µM	8.14 µM	1.68 µM	3.59 µM	1.64 µM	3.17 µM	1.93 µM	3.75 µM	1.72 µM	3.32 µM	3.43 µM	13.9 µM	1.38 µM	2.94 µM		
COc1cc2c(Oc3ccc(NC(=O)C4(C(=O)Nc5ccc(F)cc5)CC4)cc3F)ccnc2cc1OCCCN1CCOCC1	1.37 µM and 1.44 µM	3.63 µM and > 8.02 µM	0.747 µM and 2.56 µM	13.2 µM and > 10 µM	1.31 µM and 0.645 µM	8.49 µM and 2.74 µM	0.983 µM	2.87 µM	1.37 µM and 1.39 µM	2.68 µM and 2.71 µM	0.383 µM and 0.511 µM	2.41 µM and > 10 µM	1.82 µM and 2.78 µM	3.93 µM and > 9.51 µM	0.515 µM and 0.546 µM	2.03 µM and 3 µM		
CC(=O)N[C@H](C)[C@@H](O)[C@@H](C)[C@@H]1OC(=O)/C=C/C=C(C)\C=C\[C@]2(C)C[C@@H](NS(C)(=O)=O)C=C[C@@H]2/C=C(C)/C=C/[C@H]1C	0.00343 µM and 0.00506 µM	> 43.5 µM	25.2 µM	> 43.5 µM	0.0185 µM and 0.014 µM	> 43.5 µM	0.0251 µM and 0.0451 µM	> 43.5 µM	0.00313 µM and 0.00786 µM	0.0151 µM and 0.0256 µM	0.0493 µM	> 43.5 µM	0.00898 µM and 0.0242 µM	> 43.5 µM	0.00547 µM and 0.00591 µM	> 43.5 µM		
C=C1CCC2CC1C(C(=O)c1c[nH]c3ccccc13)=NC2(C)C (centres undefined)		> 100 µM		> 100 µM		> 100 µM		> 100 µM		> 100 µM		> 100 µM		> 100 µM		> 100 µM		
Cc1cc(F)c(C(=O)Nc2cccc(-c3nncn3C(C)C)n2)cc1-n1cnc(C2CC2)c1	2.01 µM	9.95 µM	13.1 µM	97 µM	6.89 µM	61.7 µM	8.56 µM	44.1 µM	11.3 µM	23.6 µM	12 µM	46.6 µM	11.7 µM	54.8 µM	9.48 µM	55.2 µM		
CCN(C(=O)N1CCN(c2cc3c(cc2F)c(=O)c(C(=O)O)cn3C2CC2)CC1)c1nc(-c2ccccc2)cs1	2.57 µM	> 100 µM	2.29 µM	25.9 µM	3.12 µM	> 100 µM	2.01 µM	7.61 µM	3.63 µM	55.6 µM	2.79 µM	29.5 µM	2.27 µM	7.91 µM	3.15 µM	> 100 µM		
CCn1cnc(C[C@H](NC(=O)[C@H](CCCCNC(=O)Nc2cc(C(F)(F)F)cc(C(F)(F)F)c2)NC(=O)Nc2cc(C(F)(F)F)cc(C(F)(F)F)c2)C(=O)OC)c1	4.83 µM	> 10 µM	3.51 µM	> 10 µM	5.27 µM	> 10 µM	5.19 µM	> 10 µM	7.75 µM	> 10 µM	5.98 µM	> 10 µM	> 10 µM	> 10 µM	3.51 µM	> 10 µM		
O=C1OC(CC(=O)c2ccc(F)cc2)C(Cl)=C1Cl (centres undefined)				43.5 µM		72.7 µM		34.9 µM		60.4 µM		93.5 µM						31.9 µM
